Results reported in article PMC9131871, “Impact of Micropolymorphism Outside the Peptide Binding Groove in the Clinically Relevant Allele HLA-C*14 on T Cell Responses in HIV-1 Infection” (Journal of Virology, 2022).

Experiments:
HLA-C*14:03 = HLA-C*14:03 (Homo sapiens, UniProt P10321, A176E/A330V/A35S/A97T/C350S/D114A/D33S/L171W/L180R/L218V/M285V/M309V/M331V/P208H/Q277E/Q291P/R121W/R243W/R45H/S123F/S297R/S48A/T329A/T363A/V319A); assay: HLA stabilization assay on RMA-S-C1403 cells; assay type: cell-based; conditions: 100 μM peptide, 26°C 1 h then 37°C 3 h, MAb DT-9 staining, flow cytometry, triplicate assays
From the text: (§1) We next sought to confirm the HLA-C*14:02/C*14:03 restriction of the HIV-1 peptides identified by LC-MS/MS. First, we tested their ability to bind to HLA-C*14:02 or HLA-C*14:03 using HLA stabilization assays. Of the 25 HIV-1 peptides, three Env peptides, Env SI8, Env AM11, and Env VM9, are located in variable regions V2 and V3. In addition, Pol AF10, Pol PF8, Pol VWL9, and Env YI9 are located in regions where high sequence variation is reported in the LANL database. Therefore, we excluded these peptides from further analysis. The other 18 peptides were synthesized and tested for binding to HLA-C*14:02/C*14:03 by analyzing their ability to stabilize surface HLA expression on TAP-defective RMA-S cell lines expressing HLA-C*14:02 (RMA-S-C1402) or HLA-C*14:03 (RMA-S-C1403). These RMA-S cell lines express equivalent levels of HLA-C*14:02 and HLA-C*14:03 on the cell surface at 26°C, and surface HLA expression declines to very low levels when the cells are warmed to 37°C in the absence of exogenously added stabilizing peptides (Fig. 2A). Peptide binding was determined by evaluating whether HLA-I expression was stabilized in the presence of 100 μM peptide.
(§2) FIG 2 HLA-C*14:02/14:03 binding of HIV-1 peptides eluted from NL4-3-infected .221-C1402 and .221-C1403 cells as assessed by HLA stabilization assay using RMA-S cell lines. (A) Histogram plots showing surface expression of HLA-C*14:02 or HLA-C*14:03 on RMA-S-C1402 or RMA-S-C1403 cells at 26°C and after cells cultured at 26°C had been warmed to 37°C for 3 h. MFI values of cells cultured at 26°C were 27.4 for HLA-C*14:02 and 28.1 for HLA-C*14:03. MFI values of cells cultured at 37°C for 3 h were 5.0 for HLA-C*14:02 and 6.54 for HLA-C*14:03. (B) Analysis of binding of 14 HIV-1 NL4.3 peptides identified by LC-MS/MS to HLA-C*14:02 (blue) or HLA-C*14:03 (red) as measured in HLA class I stabilization assays using RMA-S-C1402 or RMA-S-C1403 cells. (C) Analysis of binding of 9 additional variant peptides to HLA-C*14:02 (blue) or C*14:03 (red). For panels B and C, peptides were tested at a concentration of 100 μM. Results are plotted as percent surface HLA-I expression relative to that at 26°C, calculated as the ratio of the MFI of peptide-pulsed RMA-S-C1402 or RMA-S-C1403 cells to that of control (non-peptide-pulsed) cells kept at 26°C, multiplied by 100. Means and standard deviations (SDs) from triplicate assays are shown. Statistical analyses were performed by unpaired t test. The P values were corrected for multiple testing. *, P < 0.05 and q < 0.05; **, P < 0.01 and q < 0.03; ***, P < 0.001 and q < 0.005.
(§3) The relative affinity of peptide binding to HLA-C*14:02 and -C*14:03 was examined using RMA-S-C1402 and RMA-S-C1403 cells as previously described ([15]). Briefly, RMA-S cells were cultured at 26°C for 16 h, pulsed with peptides at 26°C for 1 h, and subsequently incubated at 37°C for 3 h. Staining of cell surface HLA-C molecules was performed with the HLA-C-reactive monoclonal antibody (MAb) DT-9 ([48]), a gift from Mary Carrington, NIH, and fluorescein isothiocyanate (FITC)-conjugated sheep anti-mouse IgG (Jackson ImmunoResearch). Staining data were acquired on a FACSCanto II instrument (BD Biosciences) and analyzed using FlowJo 10.7.1 software. Relative HLA expression was calculated as the ratio of the mean fluorescence intensity (MFI) of peptide-pulsed RMA-S-C1402 cells or RMA-S-C1403 cells to that of control (non-peptide-pulsed) cells kept at 26°C, multiplied by 100 to express the values for peptide-pulsed cells as a percentage of that for the control cells at 26°C.

HLA-C*14:02 = HLA-C*14:02 (Homo sapiens, UniProt P10321, A176E/A330V/A35S/A97T/C350S/D114A/D33S/L171W/L180R/L218V/M285V/M309V/M331V/P208H/Q277E/Q291P/R121W/R243W/S123F/S297R/S48A/T329A/T363A/V319A); assay: HLA stabilization assay on RMA-S-C1402 cells; assay type: cell-based; conditions: 100 μM peptide, 26°C 1 h then 37°C 3 h, MAb DT-9 staining, flow cytometry, triplicate assays
From the text: as §1, §2, §3

[1] = tested on: T cells of a volunteer enrolled in an HIV vaccine trial; conditions: cited from earlier work
From the text: We identified 6 HLA-C*14:02/C*14:03 epitopes in the present study. Five of these peptides were detected by LC-MS/MS in HLA-I eluates from both HLA-C*14:02^+ and HLA-C*14:03^+ .221 cells infected with HIV-1, and T cells specific for all 6 epitopes effectively recognized both HIV-1-infected HLA-C*14:02^+ and HLA-C*14:03^+ .221 cells. […] Responses to two of these peptides, Gag LY9 and Nef YT9, were identified in a previous study that analyzed T cell responses ...

| Sequence | binding to HLA-C*14:03 (stabilization of surface HLA expression) (HLA-C*14:03) | binding to HLA-C*14:02 (stabilization of surface HLA expression) (HLA-C*14:02) | HLA-C*14-restricted HIV-1 epitope status [1] |
| --- | --- | --- | --- |
| FHHMAREK [NefFL8-4M8K, variant of Nef FL8, FHHMAREK, present in Japanese cohort viruses] | detectable binding to the HLA-C*14 molecules with the exception of NefFL8-4M8K | detectable binding to the HLA-C*14 molecules with the exception of NefFL8-4M8K |  |
| LYNTVATL [Gag LL8-5V7T] |  |  | identified as an HLA-C*14-restricted HIV-1 epitope |
